How the values were obtained:
[1] = tested on: pancreas cells in long-term culture; experiment: Glucose-stimulated insulin secretion, pancreas cells generation 47, frozen/thawed or not (Example 17); format: cell-based, human
Experimental: The pancreas cell cultures described in Example 16 were passaged approximately every 3-5 days through generation 47. Passaging was done by placing 0.5-1.0 ml of cell suspension into 10 ml fresh medium in a flask. Each flask was flooded with medical blood gas mixture (supra), sealed, and maintained in an incubator at 37° C. Typically, each flask was flooded with fresh gas every other day. At passage 47, the cells had been in continuous culture for 9.5 months.
A portion of the pancreas cells at generation 47 were frozen according to the method described in Example 15 using cryopreservative A. The cells were stored frozen for 1 day, after which they were thawed according to the method described in Example 15.
The thawed cells and cells from generation 47 which had not been frozen were placed in DMSS medium and centrifuged at 1070 rpm for 5 minutes. The pellets were washed and resuspended in 30 ml of Medium PDM (Dulbecco's salt solution, phosphate buffered, with MgSO4 (no MgCl2), plus 2% BSA Fraction V), final osmolality adjusted to 272 mOsm) at 37°.
The cells were incubated 30 minutes at 37°, then centrifuged and resuspended as above. Cell count and viability were determined by Trypan blue exclusion.
The cells were then centrifuged and resuspended in a base medium consisting of 3 parts Medium PDM (supra) and 1 part DMSS, as defined in Example 6 above.

[2] = tested on: Human pancreas cells at passage generation 47; experiment: Effect of amino acids on glucose stimulated insulin secretion (Example 20); format: cell-based; conditions: 90 minutes
Experimental: Human pancreas cells at passage generation 47, were prepared for the experiment as described in Example 17 above. The cells were incubated in 6 parts PDM plus 1 part DMSS medium at a concentration of 10^5 cells/ml, at various concentrations of glucose. Alanine (10 mM) or arginine(20 mM) were added, and the cells were incubated for 90 minutes, at which time samples were collected for assay of insulin content.

daughter-islet cells = experiment: Daughter islet cell insulin secretion in response to glucose, RIA (Example 25); format: cell-based, human; conditions: for Secreted Insulin: 17 months of culture, one hour
Experimental: The daughter-islets were obtained as progeny arising through cell division from islet cells in the cultured whole islets obtained as isolates from human pancreases. After 17 months of culture the daughter-islet cells were analyzed for their ability to secrete insulin in response to physiological levels of glucose. Formula VI, as described in Examples 22 and 24 with designated glucose concentrations of 2 mM (Basal level), 7.6 mM (Maintence level), 12 mM and 22 mM was used for the experiment. Care was taken to control the osmolarity of each medium to the range of 260-268 mOsm so that no strong osmotic shock was administered to the daughter-islet cells. The cells were washed 5 times, at 20 minutes each wash, with the basal level medium (2 mM glucose level) before the experiment. Each group of 5 daughter-islet was placed in 1 ml of the test medium and incubated at 37° C., with 5% CO2/5% O2/90% N2, for one hour. The medium was collected for assay and new medium containing 7.6 mM glucose was added. The one hour incubation, using the same conditions was then repeated. Those steps were repeated for the challenges with medium containing 12 mM and 22 mM glucose. Analysis of insulin secretion levels was done by RIA as described in Example 24.

O=C[C@H](O)[C@@H](O)[C@H](O)[C@H](O)CO [glucose, D(+)glucose]
Insulin secreted ([1]; pg 47, glucose total 1 mM, 1.5 or 3 hours): 92 μIU insulin secreted/ml/10,000
Insulin secreted ([1]; pg 47, glucose total 2 mM): 100 μIU insulin secreted/ml/10,000
Insulin secreted ([1]; pg 47, glucose total 6 mM): 111 μIU insulin secreted/ml/10,000
Insulin secreted ([1]; pg 47, glucose total 11 mM): 117 μIU insulin secreted/ml/10,000
Insulin secreted ([1]; pg 47, glucose total 16 mM): 129 μIU insulin secreted/ml/10,000
Insulin secreted ([1]; pg 47, glucose total 21 mM): 116 μIU insulin secreted/ml/10,000
Insulin secreted ([1]; pg47 frozen/thawed, glucose total 1 mM): 99 μIU insulin secreted/ml/10,000
Insulin secreted ([1]; pg47 frozen/thawed, glucose total 2 mM): 105 μIU insulin secreted/ml/10,000
Insulin secreted ([1]; pg47 frozen/thawed, glucose total 6 mM): 114 μIU insulin secreted/ml/10,000
Insulin secreted ([1]; pg47 frozen/thawed, glucose total 11 mM): 128 μIU insulin secreted/ml/10,000
Insulin secreted ([1]; pg47 frozen/thawed, glucose total 16 mM): 125 μIU insulin secreted/ml/10,000
Insulin secreted ([1]; pg47 frozen/thawed, glucose total 21 mM): 124 μIU insulin secreted/ml/10,000
insulin secretion, control (glucose alone) ([2]; total 1 mM glucose, 10^5 cells/ml): 91
insulin secretion, control (glucose alone) ([2]; total 2 mM glucose): 108
insulin secretion, control (glucose alone) ([2]; total 6 mM glucose): 112
insulin secretion, control (glucose alone) ([2]; total 11 mM glucose): 116
insulin secretion, control (glucose alone) ([2]; total 16 mM glucose): 128
insulin secretion, control (glucose alone) ([2]; total 22 mM glucose): 115
Secreted Insulin (daughter-islet cells; 12 mM glucose): 38.6 μIU/ml/hour/10^3 cells
Secreted Insulin (daughter-islet cells; 22 mM glucose): 144.5 μIU/ml/hour/10^3 cells
maximal response relative to the basal level (daughter-islet cells; basal level 0.3 at 2 mM glucose): 482 times

From US6372493B1, “Hormone-secreting cells maintained in long-term culture” (Pacific Biomedical Research, Inc. [Cell Mart, Inc.], priority 1991, dated 2002)
